Source: patent publication US5187187A, “Irreversible ligands for nonsteroidal antiinflammatory drug and prostaglandin binding sites” (Trustees of the University of Pennsylvania, priority 1991, dated 1993)

How the values were obtained:
[1] = target: T1, 3α-HSD (Rattus norvegicus, UniProt P23457); test: Competitive inhibition of androsterone oxidation catalyzed by 3α-HSD, initial velocity conditions, method of Dixon; assay type: biochemical; settings: inhibition constants under initial velocity conditions, NADH formation at 340 nm, pH 7.0
T1 construct: The homogeneous 3α-HSD of rat liver cytosol; from tissue; host or cells: rat liver cytosol
T1 sequence (P23457 1-322): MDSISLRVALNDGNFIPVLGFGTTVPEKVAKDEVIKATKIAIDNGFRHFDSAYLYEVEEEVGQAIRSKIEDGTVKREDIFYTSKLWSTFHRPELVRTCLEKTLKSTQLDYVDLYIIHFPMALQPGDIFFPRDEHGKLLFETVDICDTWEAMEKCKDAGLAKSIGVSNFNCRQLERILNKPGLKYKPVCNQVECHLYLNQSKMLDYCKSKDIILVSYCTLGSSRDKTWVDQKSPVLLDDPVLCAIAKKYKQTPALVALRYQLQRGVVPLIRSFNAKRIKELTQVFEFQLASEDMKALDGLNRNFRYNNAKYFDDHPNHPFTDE
Protocol: Initial rates were determined spectrophotometrically by measuring the rate of NADH formation at 340 nM over 5 minutes in an assay containing 2.3 mM AND^+ in 0.1 M potassium phosphate buffer pH 7.0, with 4% acetonitrile (v/v) as a cosolvent in a 1 ml system. The assay was started by the addition of enzyme. […] From the slope of this plot, the Ki was determined.

[2] = target: T1, 3α-HSD; test: Time and concentration dependent inactivation of 3α-HSD, method of Kitz and Wilson; assay type: biochemical; settings: for t1/2 life for the enzyme at saturating inactivator concentrations: Kitz and Wilson analysis; for Return of activity of inactivated enzyme by extensive dialysis: after inactivation; for Loss of 3α-HSD activity (inactivation): incubation of enzyme with inactivator; for KI (inactivation): independent determination from time dependent inactivation, 1/kapp vs 1/[Inhibitor], pH 7.0, read-out: Ki (Kitz and Wilson analysis of inactivation)
Protocol: The difference in the Ki 's determined from the two methods can probably be attributed to the difference in the binding order in the enzymatic mechanism.
Inactivation of […] (15 μM) was conducted in incubations (50 μl) of 10 mM potassium phosphate buffer pH 7.0 containing 1 mM EDTA and 4% acetonitrile as a cosolvent. Enzyme activity was followed over time by diluting an aliquot of the incubation mixture in a 1 ml assay containing 2.3 mM […] and 75 μM androsterone in 0.1 M potassium phosphate buffer, pH 7.0 containing 1 mM mercaptoethanol, with 4% acetonitrile as a cosolvent. Initial rates were determined as described in FIG. 1. Because of the 100 fold or greater dilution of the enzyme into the assay, the initial rate measured is an indication of the enzyme activity remaining at that time. Initial rates of inactivation (kapp 's) were determined from semilogarithmic plots of percent enzyme activity remaining versus time. Data was replotted (FIG. 2b) as 1 /kapp vs 1/[Inhibitor] from which kinact (the rate constant for enzyme inactivation) and Ki (the binding constant for compound (VII)) were determined.

[3] = in vivo; cited from earlier work

Compound | Ki [1] [µM] | t1/2 life for the enzyme at saturating inactivator concentrations [2] [s] | Return of activity of inactivated enzyme by extensive dialysis [2] | Loss of 3α-HSD activity (inactivation) [2] | KI (inactivation) [2] [µM] | plasma t1/2 life [3] [s]
COc1ccc2c(c1)c(CC(=O)O)c(C)n2Cc1ccc(NC(=O)CBr)cc1 [Compound (VI), 1-(4-bromoacetamidobenzyl)-5-methoxy-2-methylindole-3-aceticacid] | 15 | 40.2 | cannot be returned by extensive dialysis | time and concentration dependent loss of 3α-HSD activity | 233 | 
O=C(CBr)Nc1ccc(Nc2ccccc2C(=O)O)cc1 [Compound (VII), N-(4-bromoacetamidophenyl) anthranilic acid] | 2.5 | 12.1 | cannot be returned by extensive dialysis | time and concentration dependent loss of 3α-HSD activity | 161 | 
O=C(CBr)Nc1cccc(Nc2ccccc2C(=O)O)c1 [Compound (VIII), N-(3-bromoacetamidophenyl) anthranilic acid] | 1.5 | 7.1 | cannot be returned by extensive dialysis | time and concentration dependent loss of 3α-HSD activity | 155 | 
COc1ccc2c(c1)c(CC(=O)O)c(C)n2C(=O)c1ccc(Cl)cc1 [Indomethacin (I), indomethacin, reference compound] | 0.835 |  |  |  |  | 
Cc1ccc(Cl)c(Nc2ccccc2C(=O)O)c1Cl [Meclofenamate (II), meclofenamic acid, reference compound] | 1.1 |  |  |  |  | 
Cc1ccc(C(=O)c2ccc(CC(=O)O)n2C)cc1 [Tolmetin (IV), tolmetin, reference compound] | 29 |  |  |  |  | 
CC(=O)Oc1ccccc1C(=O)O [aspirin, acetyl salicylate] |  |  |  |  |  | 900
